For 10 molecules, TGI and GI50 results are on record in PubChem BioAssay (NCI).

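Growth conditions: 96-well plates. Treatment: test compound, 48 hours, 5 concentrations. Analysis: linear interpolation between bracketing concentrations; unreached endpoints set to highest concentration. GI50 = concentration required for 50% inhibition of growth. TGI denotes the concentration required for complete inhibition of growth.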

Among the test systems are SK-MEL-28 melanoma; SF-539 CNS; OVCAR-5 ovarian; UACC-62 melanoma; NCI-H522 lung; UACC-257 melanoma; OVCAR-8 ovarian; RXF 393 renal; NCI/ADR-RES ovarian; T-47D breast.
Assay in all cases: NCI-60 cell line screen, 48 h

Turning to `CSc1cc(C(C)(C)C)ccc1C(O)c1ccc(C(C)(C)C)cc1SC`, the TGI is 39.3 µM with SK-MEL-28 melanoma; 32.3 µM in the assay on SF-539 CNS; 27 µM with OVCAR-5 ovarian; 33.9 µM with UACC-62 melanoma; 21.9 µM in the assay on NCI-H522 lung; 25.5 µM with UACC-257 melanoma. The TGI with OVCAR-8 ovarian was 28.8 µM; in the assay with RXF 393 renal, 24.9 µM.

For `CCOC(=O)CCSC1=CC(=O)c2nc3ccccc3c3ccnc1c23`, the GI50 was 20.2 µM with SK-MEL-28 melanoma; 18.2 µM with SF-539 CNS; 27.5 µM in the assay with OVCAR-5 ovarian; 15.8 µM with UACC-62 melanoma; 32.8 µM with NCI/ADR-RES ovarian; 24.3 µM in the assay with T-47D breast. Besides, the results for the GI50 in the assay with NCI-H522 lung and with UACC-257 melanoma were 17.4 µM and 14.6 µM, respectively. Moreover, the TGI is 41.1 µM in the assay with SK-MEL-28 melanoma; 35.2 µM with SF-539 CNS; 91 µM with OVCAR-5 ovarian; 31.4 µM in the assay with UACC-62 melanoma; greater than 100 µM in the assay on NCI/ADR-RES ovarian; 76 µM with T-47D breast. Moreover, the TGI in the assay with NCI-H522 lung is 43 µM; in the assay with UACC-257 melanoma, 35.7 µM.

As for `O=C(Nc1cc2cc([N+](=O)[O-])ccc2oc1=O)c1cccs1`, the TGI with SK-MEL-28 melanoma is greater than 100 µM; in the assay on SF-539 CNS, 69.9 µM; with OVCAR-5 ovarian it was greater than 100 µM; in the assay with NCI/ADR-RES ovarian it was greater than 100 µM; in the assay with T-47D breast it was greater than 100 µM; in the assay on NCI-H522 lung, 84.7 µM. Moreover, the TGI is greater than 100 µM in the assay with UACC-257 melanoma, greater than 100 µM in the assay on OVCAR-8 ovarian and 34.4 µM with RXF 393 renal.

Regarding `CCOP(=O)(OCC)C(NC(c1ccccc1)c1ccccc1)c1ccc(C(C)C)cc1` (stereo unspecified), the GI50 was 11.9 µM in the assay on SK-MEL-28 melanoma; 13.1 µM in the assay on SF-539 CNS; 10.4 µM in the assay on UACC-62 melanoma; 2.14 µM with NCI/ADR-RES ovarian; 6.65 µM in the assay on T-47D breast; 6.98 µM in the assay on NCI-H522 lung. Moreover, the GI50 with OVCAR-8 ovarian is 5.04 µM. Besides, the TGI with SK-MEL-28 melanoma amounted to 52 µM; in the assay with SF-539 CNS, 30 µM; in the assay on UACC-62 melanoma, 22.9 µM; with NCI/ADR-RES ovarian, 7.52 µM; with T-47D breast it was 41.3 µM; in the assay with NCI-H522 lung it was 29.6 µM. Besides, the TGI with OVCAR-8 ovarian amounted to 19.5 µM.

Take `COc1ccc(NC(=O)c2cccc(C3CCc4c(cc(OC)c(OC)c4OC)O3)c2)cc1` (stereo unspecified): the GI50 is 4.12 µM with SK-MEL-28 melanoma; 2.52 µM with SF-539 CNS; 6.46 µM in the assay on OVCAR-5 ovarian; 2.05 µM with UACC-62 melanoma; 2.81 µM in the assay with NCI/ADR-RES ovarian; 2.49 µM in the assay with T-47D breast. Besides, the GI50 in the assay with NCI-H522 lung was 2.29 µM; in the assay with UACC-257 melanoma, 3.72 µM; in the assay with OVCAR-8 ovarian it was 3.1 µM. In addition, the TGI is greater than 100 µM in the assay on SK-MEL-28 melanoma; 7.01 µM in the assay on SF-539 CNS; greater than 100 µM in the assay with OVCAR-5 ovarian; greater than 100 µM with UACC-62 melanoma; greater than 100 µM in the assay on NCI/ADR-RES ovarian; 7.48 µM in the assay on T-47D breast. In addition, the results for the TGI in the assay on NCI-H522 lung, with UACC-257 melanoma and in the assay on OVCAR-8 ovarian were 7.37 µM, greater than 100 µM and greater than 100 µM, respectively.

For the molecule `N#CC(C#N)=C1CCC2C(=C(C#N)C#N)CCC12` (stereo unspecified), the TGI with SF-539 CNS, in the assay on OVCAR-5 ovarian, in the assay on UACC-62 melanoma, in the assay on NCI-H522 lung, in the assay with UACC-257 melanoma and in the assay on OVCAR-8 ovarian was greater than 100 µM in each case. The same molecule showed a TGI in the assay on RXF 393 renal greater than 100 µM.

Regarding `CC(=O)O[C@H]1CC[C@]2(C)C3C(=O)C[C@]4(C)[C@@H](C(C)CCC(=O)O)CC[C@@]4(C)[C@@H]3CC[C@H]2C1(C)C` (stereo partly specified), the GI50 in the assay with SK-MEL-28 melanoma is 28.6 µM; in the assay on SF-539 CNS it was 12.8 µM; in the assay with OVCAR-5 ovarian it was greater than 50 µM; with UACC-62 melanoma, 21.7 µM; with NCI/ADR-RES ovarian it was 16.5 µM; with NCI-H522 lung it was greater than 50 µM. Besides, the GI50 with UACC-257 melanoma was 13.3 µM; in the assay with OVCAR-8 ovarian it was 15.7 µM; in the assay on RXF 393 renal, 15.5 µM. Besides, the TGI is greater than 50 µM in the assay with SK-MEL-28 melanoma; 35.2 µM with SF-539 CNS; greater than 50 µM in the assay on OVCAR-5 ovarian; greater than 50 µM in the assay on UACC-62 melanoma; greater than 50 µM in the assay on NCI/ADR-RES ovarian; greater than 50 µM in the assay with NCI-H522 lung. Further, the TGI in the assay with UACC-257 melanoma was 33.9 µM; with OVCAR-8 ovarian, greater than 50 µM; with RXF 393 renal, greater than 50 µM.

Take `O=C(c1ccc(Nc2nccc(NCCCCNc3ccnc4cc(Cl)ccc34)n2)cc1)N1CCCCC1`: the GI50 in the assay on SK-MEL-28 melanoma was 2.04 µM; in the assay on OVCAR-5 ovarian, 4.32 µM; in the assay with NCI/ADR-RES ovarian, 12.6 µM; in the assay with T-47D breast it was 2.08 µM; in the assay with NCI-H522 lung, 2.22 µM; with UACC-257 melanoma it was 1.75 µM. Further, the GI50 in the assay with OVCAR-8 ovarian was 2.63 µM; with RXF 393 renal, 1.33 µM. Moreover, the TGI in the assay on SK-MEL-28 melanoma was 4.67 µM; in the assay with OVCAR-5 ovarian it was 25.9 µM; in the assay with NCI/ADR-RES ovarian, greater than 100 µM; with T-47D breast it was 5.6 µM; in the assay on NCI-H522 lung, 4.89 µM; in the assay on UACC-257 melanoma, 3.34 µM. Besides, the TGI turned out to be 8.74 µM in the assay on OVCAR-8 ovarian and 2.82 µM in the assay on RXF 393 renal.

In the case of `CC(=O)[CH-]C(=O)c1ccccc1.CC(=O)[CH-]C(=O)c1ccccc1.CC(=O)[CH-]C(=O)c1ccccc1.[Br-].[Zr+4]`, the GI50 with SK-MEL-28 melanoma was 55.3 µM; in the assay with OVCAR-5 ovarian, 29.8 µM; with UACC-62 melanoma it was greater than 100 µM; in the assay on NCI-H522 lung, 93.2 µM; in the assay with UACC-257 melanoma, 48.2 µM; in the assay on OVCAR-8 ovarian, greater than 100 µM. In the assay on RXF 393 renal, the GI50 is greater than 100 µM. Besides, the TGI in the assay with SK-MEL-28 melanoma, in the assay on OVCAR-5 ovarian, in the assay with UACC-62 melanoma, in the assay on NCI-H522 lung, in the assay with UACC-257 melanoma and in the assay with OVCAR-8 ovarian was greater than 100 µM throughout. Further, the TGI in the assay with RXF 393 renal is greater than 100 µM.

Turning to `O=C(Nc1ccc(Cl)cc1)N1CCN(c2ccc3nncn3n2)CC1`, the GI50 is greater than 100 µM in the assay on SK-MEL-28 melanoma; greater than 100 µM with SF-539 CNS; greater than 100 µM with OVCAR-5 ovarian; 21.7 µM in the assay with UACC-62 melanoma; greater than 100 µM in the assay with NCI/ADR-RES ovarian; 29.4 µM in the assay with T-47D breast. In addition, the GI50 in the assay with OVCAR-8 ovarian was 69.7 µM; with RXF 393 renal it was greater than 100 µM. Besides, the TGI with SK-MEL-28 melanoma, in the assay on SF-539 CNS, in the assay with OVCAR-5 ovarian, with UACC-62 melanoma, in the assay on NCI/ADR-RES ovarian and in the assay with T-47D breast was greater than 100 µM in each case. Further, the TGI with OVCAR-8 ovarian and with RXF 393 renal was greater than 100 µM each time.
